Laboratory results reported in patent publication US20120184548A1, “CARBOXYLIC ACID ARYL AMIDES” (priority 2011, published 2012).

Legend:
Human DYRK1A = molecular target: T1, Human DYRK1A (Homo sapiens, UniProt Q13627); assay: DYRK1A Kinase TR-FRET (IMAP-Tb) Assay; type: biochemical; details: for IC50: TR-FRET, ATP 70 μM, 37° C. for 60 minutes, averages of multiple runs, read-out: Enzyme IC50 DYRK1A; for inhibition at 10 µM: 10 μM test compound, reported where IC50 was not determined, read-out: Enzyme DYRK1A % inhibition at 10 μM test compound concentration
T1 construct: purchased Invitrogen PV3997
Text: The kinase TR-FRET (IMAP-Tb) assay uses a fluorescence labeled substrate peptide in the kinase reaction. Upon phosphorylation by the kinase, phosphopeptide is produced, which will be detected by the binding solution provided in IMAP TR-FRET binding kit. After the completion of the kinase reaction, the reaction will be stopped by adding the binding solution containing terbium tracer. This tracer is immobilized on the surface of the IMAP beads, which also contain metal ions on the beads that bind to the phospho-groups of the products. Thus the phosphorylated product of the reaction can enter into close proximity to the tracer, producing resonance energy transfer. Due to the long lifetime of terbium (Tb) fluorescence the detection can be run in time resolved mode, which virtually eliminates fluorescence interference from assay components or compounds.
The TR-FRET signal measurement from this assay, given as an IC50 measurement, is a measure of a test compound's ability to interfere with the phosphorylation of the peptide substrate, that is it inhibits the phosphorylation of the substrate peptide by DYRK1A, and is thus a measure of the test compound's ability to inhibit the activity of DYRK1A.
1. Human DYRK1A: from Invitrogen. Part # PV3997
2. Substrate Peptide: […]
3. IMAP TR-FRET IPP Explorer Kit: from Molecular Devices. Part # R8157 4. Kinase Assay Buffer (KAB): 10 mM HEPES pH 7.0, 50 mM NaCl, 5 mM MgCl2, 1 mM DTT, 1 mM NaVO4, 200 μg/mL BSA (0.02%) 5. Assay Plate: Remp polypropylene clear 384-well microplate. […] Detection Plate: Costa black 384-well microplate. […] Transfer 1.5 μL of 20× compound solution to each well of an assay plate. 2. Add to each well 22.5 μL of KAB Buffer. 3. Add to each well 3 μL of the solution of DYRK1A and ATP. […] Add to each well 3 μL of the substrate peptide. The assay concentration is 1.0 μM 5. Incubate the assay plates at 37° C. for 60 minutes. 6. Add 18 μL of Detection Solution (1:800 diluted Progress bead stock, 1:400 diluted Tb stock, 80% Buffer A, and 20% Buffer B) into each well of detection plates. 7. Transfer 6 μL of assay solution from the assay plate to the detection plate. 8. Shake detection plates for 30 minutes. 9. Read plates in Envision with wavelength set at excitation 340 nm for Tb, emission 490 nm, and […].

Human DYRK1B = molecular target: T2, Human DYRK1B (Homo sapiens, UniProt Q9Y463); assay: DYRK1B Kinase TR-FRET (IMAP-Tb) Assay; type: biochemical; details: for IC50: TR-FRET, ATP 70 μM, 37° C. for 60 minutes, averages of multiple runs, read-out: Enzyme IC50 DYRK1B; for inhibition at 10 µM: 10 μM test compound, reported where IC50 was not determined, read-out: Enzyme DYRK1B % inhibition at 10 μM test compound concentration
T2 construct: purchased Invitrogen PR8350B (former PV4649)
T2 sequence (Q9Y463 whole entry): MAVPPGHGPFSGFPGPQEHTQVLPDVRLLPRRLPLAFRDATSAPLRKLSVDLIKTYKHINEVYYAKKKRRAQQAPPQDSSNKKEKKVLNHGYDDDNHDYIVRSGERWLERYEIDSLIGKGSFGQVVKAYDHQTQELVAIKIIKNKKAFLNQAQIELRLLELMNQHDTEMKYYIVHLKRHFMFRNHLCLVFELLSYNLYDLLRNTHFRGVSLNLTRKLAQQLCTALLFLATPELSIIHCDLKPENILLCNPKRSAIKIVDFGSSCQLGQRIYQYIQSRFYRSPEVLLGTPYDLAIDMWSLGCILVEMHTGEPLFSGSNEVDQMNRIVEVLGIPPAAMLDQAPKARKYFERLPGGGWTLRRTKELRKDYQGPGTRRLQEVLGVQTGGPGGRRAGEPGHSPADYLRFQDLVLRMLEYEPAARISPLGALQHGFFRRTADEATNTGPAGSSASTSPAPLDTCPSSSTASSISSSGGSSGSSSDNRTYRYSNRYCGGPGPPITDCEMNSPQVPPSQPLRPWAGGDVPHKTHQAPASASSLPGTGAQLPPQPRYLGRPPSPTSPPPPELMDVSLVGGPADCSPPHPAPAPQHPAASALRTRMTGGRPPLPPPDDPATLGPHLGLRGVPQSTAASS
Text: The kinase TR-FRET (IMAP-Tb) assay uses a fluorescence labeled substrate peptide in the kinase reaction. Upon phosphorylation by the kinase, phosphopeptide is produced, which will be detected by the binding solution provided in IMAP TR-FRET binding kit. After the completion of the kinase reaction, the reaction will be stopped by adding the binding solution containing terbium tracer. This tracer is immobilized on the surface of the IMAP beads, which also contain metal ions on the beads that bind to the phospho-groups of the products. Thus the phosphorylated product of the reaction can enter into close proximity to the tracer, producing resonance energy transfer. Due to the long lifetime of terbium (Tb) fluorescence the detection can be run in time resolved mode, which virtually eliminates fluorescence interference from assay components or compounds. […] IC50 is the amount of test compound that inhibits 50% of the activity of DYRK1B in this assay. […] 1. Human DYRK1B: from Invitrogen. Part # PR8350B (former PV4649) 2. Substrate Peptide: RRRFRPASPLRGPPK 3. IMAP TR-FRET IPP Explorer Kit: from Molecular Devices. Part # R8157 4. Kinase Assay Buffer (KAB): 10 mM HEPES pH 7.0, 50 mM NaCl, 5 mM MgCl2, 1 mM DTT, 1 mM NaVO4, 200 μg/mL BSA (0.02%) 5. Assay Plate: Remp polypropylene clear 384-well microplate. Cat#23490-102 6. Detection Plate: Costa black 384-well microplate. Cat #3710 Assay Procedure: This assay was performed as follows: 1. Transfer 1.5 μL of 20× compound solution to each well of an assay plate. 2. Add to each well 22.5 μL of KAB Buffer. 3. Add to each well 3 μL of the solution of DYRK1B and ATP. […] Add to each well 3 μL of the substrate peptide. […] Incubate the assay plates at 37° C. for 60 minutes. 6. Add 18 μL of Detection Solution (1:800 diluted Progress bead stock, 1:400 diluted Tb stock, 80% Buffer A, and 20% Buffer B) into each well of detection plates. 7. Transfer 6 μL of assay solution from the assay plate to the detection plate. 8. Shake detection plates for 30 minutes. 9. Read plates in Envision with wavelength set at excitation 340 nm for Tb, emission 490 nm, and […]. 10. Calculation: TR-FRET Signal=(Reading at […])×2000000

Row | SMILES | IC50 (Human DYRK1A) [nM] | IC50 (Human DYRK1B) [nM] | inhibition at 10 µM (Human DYRK1A) [%] | inhibition at 10 µM (Human DYRK1B) [%]
1 | COc1cc2c(cc1OC)NC(=O)C(C(=O)Nc1cc(C(=O)NCc3ccccc3)ccc1Cl)C2 (centres unmarked) [Example 73, 6,7-Dimethoxy-2-oxo-1,2,3,4-tetrahydro-quinoline-3-carboxylic acid (5-benzylcarbamoyl-2-chloro-phenyl)-amide] | 880 | 2340 |  | 
2 | COCCOc1cc2cc(C(=O)Nc3cc(-c4nnn[nH]4)ccc3C)c(=O)[nH]c2cc1OCCOC [Example 28, 6,7-Bis-(2-methoxy-ethoxy)-2-oxo-1,2-dihydro-quinoline-3-carboxylic acid [2-methyl-5-(1H-tetrazol-5-yl)-phenyl]-amide] |  | 5050 | 49 | 
3 | COc1cc2cc(C(=O)Nc3ccncc3C)c(=O)[nH]c2cc1OC [Example 21, 6,7-Dimethoxy-2-oxo-1,2-dihydro-quinoline-3-carboxylic acid (3-methyl-pyridin-4-yl)-amide] | > 10000 | 5480 |  | 
4 | COc1cc2cc(C(=O)Nc3cc(C(=O)NCCCN4CCOCC4)ccc3C)c(=O)[nH]c2cc1OC [Example 32, 6,7-Dimethoxy-2-oxo-1,2-dihydro-quinoline-3-carboxylic acid [2-methyl-5-(3-morpholin-4-yl-propylcarbamoyl)-phenyl]-amide] | 3620 | > 10000 |  | 
5 | COCCOc1cc2cc(C(=O)Nc3cc(C(=O)N[C@@H](CCN)c4ccccc4)ccc3C)c(=O)[nH]c2cc1OC (single isomer, unassigned) [Example 59] | 2380 | 4910 |  | 
6 | COCCOc1cc2[nH]c(=O)c(C(=O)Nc3cc(-c4nnn[nH]4)ccc3C)cc2cc1OC [Example 27, 6-Methoxy-7-(2-methoxy-ethoxy)-2-oxo-1,2-dihydro-quinoline-3-carboxylic acid [2-methyl-5-(1H-tetrazol-5-yl)-phenyl]-amide] |  | 6590 | 41 | 
7 | COc1cc2cc(C(=O)Nc3cc(C(=O)N[C@@H](CO)CC(C)C)ccc3C)c(=O)[nH]c2cc1OC [Example 66, (R)-N-(5-(1-Hydroxy-4-methylpentan-2-ylcarbamoyl)-2-methylphenyl)-6,7-dimethoxy-2-oxo-1,2-dihydroquinoline-3-carboxamide] | > 10000 |  |  | 13
8 | COc1cc2cc(C(=O)Nc3cc(C(=O)N[C@@H](CO)c4ccccc4)ccc3C)c(=O)[nH]c2cc1OC [Example 56, (R)-N-(5-(2-Hydroxy-1-phenylethylcarbamoyl)-2-methylphenyl)-6,7-dimethoxy-2-oxo-1,2-dihydroquinoline-3-carboxamide] |  | > 10000 | 31 | 
9 | COc1cc2cc(C(=O)Nc3cc(C(=O)NC(CCN)c4ccccc4)ccc3C)c(=O)[nH]c2cc1OC (stereo in doubt) [Example 48, 6,7-Dimethoxy-2-oxo-1,2-dihydro-quinoline-3-carboxylic acid [5-((S)-3-amino-1-phenyl-propylcarbamoyl)-2-methyl-phenyl]-amide] | 1020 |  |  | 39
10 | COC(=O)c1ccc(Cl)c(NC(=O)C2Cc3cc(OC)c(OC)cc3NC2=O)c1 (centres unmarked) [Example 71, 4-Chloro-3-[(6,7-dimethoxy-2-oxo-1,2,3,4-tetrahydro-quinoline-3-carbonyl)-amino]-benzoic acid methyl ester] | 690 | 860 |  | 
11 | COCCOc1cc2[nH]c(=O)c(C(=O)Nc3cc(C(=O)OC)ccc3C)cc2cc1OC [Example 26, 3-{[6-Methoxy-7-(2-methoxy-ethoxy)-2-oxo-1,2-dihydro-quinoline-3-carbonyl]-amino}-4-methyl-benzoic acid methyl ester] | 5140 | 6420 |  | 
12 | COc1cc2cc(C(=O)Nc3cc(C(=O)N[C@H](CO)CC(C)C)ccc3C)c(=O)[nH]c2cc1OC [Example 65, (S)-N-(5-(1-Hydroxy-4-methylpentan-2-ylcarbamoyl)-2-methylphenyl)-6,7-dimethoxy-2-oxo-1,2-dihydroquinoline-3-carboxamide] | 4310 |  |  | 26
13 | COc1cc2cc(C(=O)Nc3cc(C(=O)NC(CO)C(C)C)ccc3C)c(=O)[nH]c2cc1OC (centres unmarked) [Example 33, 6,7-Dimethoxy-2-oxo-1,2-dihydro-quinoline-3-carboxylic acid [5-(1-hydroxymethyl-2-methyl-propylcarbamoyl)-2-methyl-phenyl]-amide] |  |  | 36 | 36
14 | COc1cc2cc(C(=O)Nc3cc(C(=O)NCc4cccc(Cl)c4)ccc3C)c(=O)[nH]c2cc1OC [Example 40, 6,7-Dimethoxy-2-oxo-1,2-dihydro-quinoline-3-carboxylic acid [5-(3-chloro-benzylcarbamoyl)-2-methyl-phenyl]-amide] | 182 |  |  | 34
15 | COc1cc2cc(C(=O)Nc3cc(-c4nnn[nH]4)ccc3C)c(=O)[nH]c2cc1OC [Example 22, 6,7-Dimethoxy-2-oxo-1,2-dihydro-quinoline-3-carboxylic acid [2-methyl-5-(1H-tetrazol-5-yl)-phenyl]-amide] | > 10000 | 719 |  | 
16 | COc1cc2cc(C(=O)Nc3cc(-c4ncco4)ccc3C)c(=O)[nH]c2cc1OC [Example 51, 6,7-Dimethoxy-2-oxo-1,2-dihydro-quinoline-3-carboxylic acid (2-methyl-5-oxazol-2-yl-phenyl)-amide] | 592 |  |  | 42
17 | COc1cc2[nH]c(=O)c(C(=O)Nc3cc(C(=O)NCc4cccc(Cl)c4)ccc3C)cc2cc1O [Example 68, 6-Hydroxy-7-methoxy-2-oxo-1,2-dihydro-quinoline-3-carboxylic acid [5-(3-chloro-benzylcarbamoyl)-2-methyl-phenyl]-amide] | 58 | 189 |  | 
18 | COCCOc1cc2cc(C(=O)Nc3cc(-c4nnn[nH]4)ccc3C)c(=O)[nH]c2cc1OC [Example 24, 7-Methoxy-6-(2-methoxy-ethoxy)-2-oxo-1,2-dihydro-quinoline-3-carboxylic acid [2-methyl-5-(1H-tetrazol-5-yl)-phenyl]-amide] | 1760 | 2670 |  | 
19 | COc1cc2cc(C(=O)Nc3cc(C(=O)N(C)C)ccc3Cl)c(=O)[nH]c2cc1OC [Example 20, 6,7-Dimethoxy-2-oxo-1,2-dihydro-quinoline-3-carboxylic acid (2-chloro-5-dimethylcarbamoyl-phenyl)-amide] | 1130 | 5090 |  | 
